Results on 2 sequences are retold here after patent US11072636B2, “Peptide for inhibiting angiogenesis and use thereof” (CAREGEN CO., LTD., priority 2017, dated 2021).

Assay [1] has as its system human umbilical vein endothelial cells (HUVEC). Description: Inhibition of proliferation of vascular endothelial cells (MTT analysis). The assay is classed as cell-based. Conditions: VEGF 20 ng/ml, 1% serum, 3 days, MTT absorbance 560 nm, FIGS. 1 and 2. As to the method:
In order to confirm an effect of inhibiting the proliferation of vascular endothelial cells, the peptides prepared in Preparation Example 1 were treated to vascular endothelial cells, respectively, and then MTT analysis was performed.
Specifically, human umbilical vein endothelial cells (HUVEC) were inoculated in a 96-well plate at a density of 4×10^3 cells/well and then incubated overnight. Thereafter, after the medium was changed to a medium added with 1% serum, a VEGF (20 ng/ml) and the peptide of the present invention were treated for each concentration, respectively, and incubated for 3 days. However, 2 μm of sunitinib was used as a positive control group.
In addition, in order to confirm the effect of inhibiting the proliferation, 4 mg/ml of a thiozolyl blue tetrazolium bromide (MTT) solution was added to each well, formazan generated after reaction for 4 hours was dissolved by DMSO treatment, and then the absorbance was measured at a wavelength of 560 nm using a microplate reader. However, the measured absorbance values were shown by calculating relative rates based on an untreated control group.

The test system of assay [2] is HUVEC cells. Description: Inhibition of differentiation of vascular endothelial cells (tube formation assay). The assay is classed as cell-based, human. Conditions: VEGF 20 ng/ml, serum-free, 1 day, FIGS. 3 and 4. As to the method: In order to confirm the effect of inhibiting the differentiation of vascular endothelial cells, the two peptides prepared in Preparation Example 1 were treated to the vascular endothelial cells, respectively, and then a tube formation assay was performed.
Specifically, HUVEC cells were inoculated in a 96-well plate at a density of 1.5×10^3 cells/well and incubated overnight, and then the medium was replaced with serum-free media, and then a VEGF (20 ng/ml) and the peptide of the present invention were treated by concentration and incubated for 1 day. However, 2 μm of sunitinib was used as a positive control group. After the incubation was completed, the measurement of tube formation was visually observed using an optical microscope, and the number of nodules was measured together.

The subject of assay [3] is VEGF receptor (VEGFR2). As to the kind of experiment: Inhibition of cell signaling pathway induced by VEGF: phosphorylation of VEGFR2. The format is cell-based. Particulars: vascular endothelial cells; FIGS. 5 and 6. As to the method:
(§1) Further, in order to confirm the effect of inhibiting a cell signaling pathway induced by the VEGFs by the peptides of the present invention, in a specific exemplary embodiment of the present invention, a peptide having an amino acid sequence of SEQ ID NO: 1 or SEQ ID NO: 2 was treated to vascular endothelial cells and then changes in phosphorylation of a VEGF receptor (VEGFR2), ERK, AKT and p38 induced by the VEGF were confirmed.

For assay [4], the system named is ERK. Description: Inhibition of cell signaling pathway induced by VEGF: phosphorylation of ERK. Conditions: vascular endothelial cells; FIGS. 5 and 6. The assay is classed as cell-based. As to the method: as §1
For assay [5], the system named is AKT. Description: Inhibition of cell signaling pathway induced by VEGF: phosphorylation of AKT. The format is cell-based. Particulars: vascular endothelial cells; FIGS. 5 and 6. As to the method: as §1
The subject of assay [6] is p38. As to the kind of experiment: Inhibition of cell signaling pathway induced by VEGF: phosphorylation of p38. The assay is classed as cell-based. Particulars: vascular endothelial cells; FIGS. 5 and 6. On the procedure:
as §1

Assay [7] relates to eNOS. As to the kind of experiment: Expression level of vascular endothelial cell migration marker eNOS. Conditions: vascular endothelial cells; FIGS. 7 and 8. The format is cell-based. An excerpt:
In addition, in order to confirm an effect of inhibiting the migration the vascular endothelial cells by the peptides of the present invention, in a specific exemplary embodiment of the present invention, a change in expression level of a vascular endothelial cell migration marker ‘eNOS’ was confirmed depending on treatment of the peptide having the amino acid sequence of SEQ ID NO: 1 or SEQ ID NO: 2 to the vascular endothelial cells.

Assay [8] relates to BAX protein. As to the kind of experiment: Expression level of pro-apoptotic BAX protein. The assay is classed as cell-based. Conditions: vascular endothelial cells, expression reduced by the VEGF; FIGS. 9 and 10.
Assay [9] concerns the target VEGFR2 (Homo sapiens, UniProt P35968). Description: Competitive binding to the VEGF receptor. Particulars: FIGS. 11 to 14.

VEGFR2, sequence (P35968 20-1356, species assumed): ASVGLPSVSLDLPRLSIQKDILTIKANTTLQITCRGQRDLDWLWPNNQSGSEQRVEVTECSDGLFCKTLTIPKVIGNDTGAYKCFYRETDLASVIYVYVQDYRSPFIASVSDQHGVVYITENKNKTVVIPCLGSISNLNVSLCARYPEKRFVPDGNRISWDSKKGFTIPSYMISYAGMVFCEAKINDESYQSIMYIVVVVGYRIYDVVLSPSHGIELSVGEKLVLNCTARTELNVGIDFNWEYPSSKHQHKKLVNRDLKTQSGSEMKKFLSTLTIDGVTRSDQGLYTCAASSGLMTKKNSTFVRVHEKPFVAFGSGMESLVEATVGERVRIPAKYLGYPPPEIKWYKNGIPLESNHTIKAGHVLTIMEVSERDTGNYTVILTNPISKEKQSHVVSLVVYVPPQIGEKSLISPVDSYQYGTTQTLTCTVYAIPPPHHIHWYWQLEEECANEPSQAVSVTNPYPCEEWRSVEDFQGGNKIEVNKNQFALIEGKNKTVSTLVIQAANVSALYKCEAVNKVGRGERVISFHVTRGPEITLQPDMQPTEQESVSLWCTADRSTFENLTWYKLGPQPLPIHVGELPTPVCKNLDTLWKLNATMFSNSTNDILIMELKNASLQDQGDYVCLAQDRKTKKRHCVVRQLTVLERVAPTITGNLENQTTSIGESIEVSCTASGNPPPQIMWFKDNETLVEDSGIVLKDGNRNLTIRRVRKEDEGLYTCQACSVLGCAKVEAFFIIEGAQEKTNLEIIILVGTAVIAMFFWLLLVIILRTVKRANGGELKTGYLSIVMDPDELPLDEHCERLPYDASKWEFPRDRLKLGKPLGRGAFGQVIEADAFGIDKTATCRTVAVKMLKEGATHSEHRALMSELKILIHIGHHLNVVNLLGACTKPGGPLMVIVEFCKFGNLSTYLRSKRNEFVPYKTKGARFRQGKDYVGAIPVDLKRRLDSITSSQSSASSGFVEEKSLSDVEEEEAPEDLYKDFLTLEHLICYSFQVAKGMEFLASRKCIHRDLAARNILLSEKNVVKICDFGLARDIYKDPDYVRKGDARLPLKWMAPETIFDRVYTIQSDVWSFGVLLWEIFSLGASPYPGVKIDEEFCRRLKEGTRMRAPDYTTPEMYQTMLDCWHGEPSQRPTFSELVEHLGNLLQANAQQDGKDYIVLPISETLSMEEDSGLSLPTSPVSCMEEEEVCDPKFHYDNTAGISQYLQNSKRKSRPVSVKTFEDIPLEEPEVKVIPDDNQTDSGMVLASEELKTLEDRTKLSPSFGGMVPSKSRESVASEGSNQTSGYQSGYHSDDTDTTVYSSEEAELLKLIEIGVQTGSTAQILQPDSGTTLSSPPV

As for NKNFGYDLYR (Peptide 1) [SEQ ID NO: 1], in assay [1], the “proliferation of vascular endothelial cells increased by the VEGF” value was “reduced”. The “differentiation (tube formation) of vascular endothelial cells” value in [2] was “reduced”. For the same sequence, the “phosphorylation of VEGFR2 induced by the VEGF” value in assay [3] was “significantly inhibited”. Moreover, in [4], the “phosphorylation of ERK induced by the VEGF” value was “significantly inhibited”. Also, the “phosphorylation of AKT induced by the VEGF” value in assay [5] is reported as “significantly inhibited”. Also, the “phosphorylation of p38 induced by the VEGF” value in assay [6] is given as “significantly inhibited”. Further, in assay [7], the “eNOS expression increased by VEGF treatment” value is listed as “decrease concentration-dependently”. Further, the “expression of the BAX protein” value in assay [8] was “increased concentration-dependently”. Also, the “binding to the VEGF receptor in competition with the VEGF” value in assay [9] is given as “bind to a VEGFR2 competitively with the VEGF”.

On to IHGTYKELL (Peptide 2) [SEQ ID NO: 2], for which, in assay [1], the “proliferation of vascular endothelial cells increased by the VEGF” value was “reduced”. Further, the “differentiation (tube formation) of vascular endothelial cells” value in assay [2] is on record as “reduced”. In [3], the “phosphorylation of VEGFR2 induced by the VEGF” value is “significantly inhibited”. The “phosphorylation of ERK induced by the VEGF” value in assay [4] is “significantly inhibited”. For the same sequence, the “phosphorylation of AKT induced by the VEGF” value in [5] is on record as “significantly inhibited”. The “phosphorylation of p38 induced by the VEGF” value in assay [6] is recorded as “significantly inhibited”. In addition, in assay [7], the “eNOS expression increased by VEGF treatment” value is recorded as “decrease concentration-dependently”. In addition, in assay [8], the “expression of the BAX protein” value is “increased concentration-dependently”. Moreover, the “binding to the VEGF receptor in competition with the VEGF” value in assay [9] is given as “bind to a VEGFR2 competitively with the VEGF”.
